System: not given
Assay: not given
Settings: not given

Question: For Cc1nc(NC2Cc3ccccc3C2)nc(-n2ccnc2C)c1[N+](=O)[O-].Cl, which melting point is on record?
Answer: Its melting point is 184 to 185 °C.

Question: Which melting point does the source give for CC[C@H]1CCCCC1Nc1nc(C)c([N+](=O)[O-])c(-n2ccnc2)n1 (some centres unmarked) here?
Answer: Its melting point is 123 to 124 °C.

System: recombinant human cytomegalovirus (HCMV)
Assay: microbe, parasite or virus in culture
Type: cell-based
Settings: Human betaherpesvirus 5, HFF
From the text: For the assessment of activity against human CMV, a method was used which is similar to that described in Kohler, et al. (1994) J. Virol. 68:6589-6597. Briefly, a recombinant human cytomegalovirus (HCMV) was made containing a marker gene (luciferase) under the control of the promoter for the late 28 kDa viral structural phosphoprotein pp28. Human foreskin fibroblast (HFF) cells were infected with the recombinant HCMV virus (moi (multiplicity of infection) 5), placed into 96-well plates, and cultured under standard cell-culture conditions. […] The level of luciferase expression was measured 24 h after treatment with the test compounds. […] As an additional control, the cytotoxicity of test compounds on untreated HFF cells was also evaluated in cultured cell growth experiments.

Question: For CCC(Nc1nc(C)c([N+](=O)[O-])c(-n2ccnc2)n1)c1ccccc1 (centres unmarked) [2-(1-phenyl-1-propylamino)-4-(imidazol-1-yl)-6-methyl-5-nitropyrimidine], which IC50 is on record?
Answer: Its IC50 is > 500 nM.

Question: Which IC50 does the source give for Cc1nc(NC2Cc3ccccc3C2)nc(-n2ccnc2C)c1[N+](=O)[O-] [2-(2-indanamino)-4-(2-methylimidazoyl)-6-methyl-5-nitropyrimidine] here?
Answer: The IC50 was > 500 nM.

Question: For Cc1nc(NC2Cc3ccccc3C2)nc(-n2ccnc2)c1[N+](=O)[O-] [2-(2-indanamino)-4-imidazolyl-6-methyl-5-nitropyrimidine], which IC50 is on record?
Answer: The IC50 was > 500 nM.

Question: With CCc1nccn1-c1nc(NC2CCc3c(F)cc(F)cc32)nc(C)c1[N+](=O)[O-] (centres unmarked) [2-(4,6-difluoro-1-indanamino)-4-(2-ethylimidazolyl)-6-methyl-5-nitropyrimidine] as the compound, how does the IC50 read?
Answer: Its IC50 is 100 to 500 nM.

Question: With Cc1nc(NC2CCc3c(F)cc(F)cc32)nc(-n2ccnc2C)c1[N+](=O)[O-] (centres unmarked) [2-(4,6-difluoro-1-indanamino)-4-(2-methylimidazolyl)-6-methyl-5-nitropyrimidine] as the compound, how does the IC50 read?
Answer: The IC50 was 100 to 500 nM.

Question: Which IC50 does the source give for Cc1nc(NC2CCc3c(F)cc(F)cc32)nc(-n2ccnc2)c1[N+](=O)[O-] (centres unmarked) [2-(4,6-difluoro-1-indanamino)-4-imidazolyl-6-methyl-5-nitropyrimidine] here?
Answer: Its IC50 is 100 to 500 nM.

Question: With Cc1nc(NCc2ccc(C(F)(F)F)cc2)nc(-n2ccnc2C)c1[N+](=O)[O-] [2-(4-trifluoromethylbenzylamino)-4-(2-methylimidazol-1-yl)-6-methyl-5-nitropyrimidine] as the compound, how does the IC50 read?
Answer: The IC50 was 100 to 500 nM.

Question: For CCCCN(Cc1ccccc1)c1nc(C)c([N+](=O)[O-])c(-n2ccnc2C)n1 [Compound m], which IC50 is on record?
Answer: Its IC50 is 2000 nM.

Question: For Cc1nc(N(Cc2ccccc2)Cc2ccccc2)nc(-n2ccnc2C)c1[N+](=O)[O-] [Compound o], which IC50 is on record?
Answer: Its IC50 is 2000 nM.

Question: For Cc1nc(N2CCC(C)CC2)nc(-n2ccnc2C)c1[N+](=O)[O-] [Compound p], which IC50 is on record?
Answer: Its IC50 is 300 nM.

Question: With CCCCN(CC1CC1)c1nc(C)c([N+](=O)[O-])c(-n2ccnc2C)n1 [Compound q] as the compound, how does the IC50 read?
Answer: Its IC50 is 3000 nM.

Question: Which IC50 does the source give for CCc1nc(N(C)c2ccccc2)nc(-n2ccnc2C)c1[N+](=O)[O-] [c] here?
Answer: Its IC50 is 100 nM.

Question: With Cc1nc(-n2ccnc2C)nc(N(C)Cc2ccccc2)c1[N+](=O)[O-] [f] as the compound, how does the IC50 read?
Answer: Its IC50 is 6000 nM.

Question: Which IC50 does the source give for Cc1nc(N(C)c2ccc(Cl)cc2)nc(-n2ccnc2C)c1[N+](=O)[O-] [g] here?
Answer: The IC50 was 800 nM.

Question: Which IC50 does the source give for Cc1nccn1-c1nc(N(C)c2ccccc2)nc(C(C)C)c1[N+](=O)[O-] [h] here?
Answer: Its IC50 is 300 nM.

Question: Which IC50 does the source give for CCN(CC)c1nc(C)c([N+](=O)[O-])c(-n2ccnc2C)n1 [k] here?
Answer: The IC50 was 1000 nM.

Question: Which IC50 does the source give for Cc1cn(-c2nc(N(C)c3ccccc3)nc(C)c2[N+](=O)[O-])cn1 [t] here?
Answer: Its IC50 is 10000 nM.

Question: With CCCOc1nc(C)c([N+](=O)[O-])c(-n2ccnc2C)n1 [x, 2-(propyloxy)-4-(2-methylimidazol-1yl)-6-methyl-5-nitropyrimidine] as the compound, how does the IC50 read?
Answer: The IC50 was > 500 nM.

Reference: patent US20030130264A1 (priority 2001, published 2003)
